For this test, the target named is T1, HIF-2α (Homo sapiens, UniProt Q99814).
T1 construct: endogenous in cells; host or cells: 786-0 cells
Description: VEGF ELISA Assay. Type of test: cell-based. To be noted: VEGF expression in 786-0 cells; VEGF in culture medium by ELISA; four parameter dose-response fit. As for the experimental part:
The ability of the disclosed compounds to inhibit HIF-2α was measured by determining VEGF expression in 786-0 cells. About 7500 786-0 cells were seeded into each well of a 96-well, white, clear bottom plate (07-200-566, Fisher Scientific) with 200 ul growth medium. Four hours later, compounds were dispensed into wells by Tecan D300e digital dispenser with starting concentration of 10 uM and […] of dilution down to 1 nM as final concentration. Each concentration of treatment was performed in duplicate. About 20 hours later, medium was removed and fresh medium was added, followed by compounds treatment as described above. 24 hours later, cell culture medium was collected to determine VEGF concentration using an ELISA kit (R&D systems, cat #DVE00) following the manufacturer's instruction.
The EC50 is calculated by GraphPad Prism using the dose-response-inhibition (four parameter) equation. The plate with cells was then subjected to CellTiter-Glo luminescence cell viability assay (Promega) to determine the effect of these compounds on cell numbers after the above treatment.
On the technique in general: ELISA stands for enzyme-linked immunosorbent assay.

T1 sequence (Q99814 whole entry): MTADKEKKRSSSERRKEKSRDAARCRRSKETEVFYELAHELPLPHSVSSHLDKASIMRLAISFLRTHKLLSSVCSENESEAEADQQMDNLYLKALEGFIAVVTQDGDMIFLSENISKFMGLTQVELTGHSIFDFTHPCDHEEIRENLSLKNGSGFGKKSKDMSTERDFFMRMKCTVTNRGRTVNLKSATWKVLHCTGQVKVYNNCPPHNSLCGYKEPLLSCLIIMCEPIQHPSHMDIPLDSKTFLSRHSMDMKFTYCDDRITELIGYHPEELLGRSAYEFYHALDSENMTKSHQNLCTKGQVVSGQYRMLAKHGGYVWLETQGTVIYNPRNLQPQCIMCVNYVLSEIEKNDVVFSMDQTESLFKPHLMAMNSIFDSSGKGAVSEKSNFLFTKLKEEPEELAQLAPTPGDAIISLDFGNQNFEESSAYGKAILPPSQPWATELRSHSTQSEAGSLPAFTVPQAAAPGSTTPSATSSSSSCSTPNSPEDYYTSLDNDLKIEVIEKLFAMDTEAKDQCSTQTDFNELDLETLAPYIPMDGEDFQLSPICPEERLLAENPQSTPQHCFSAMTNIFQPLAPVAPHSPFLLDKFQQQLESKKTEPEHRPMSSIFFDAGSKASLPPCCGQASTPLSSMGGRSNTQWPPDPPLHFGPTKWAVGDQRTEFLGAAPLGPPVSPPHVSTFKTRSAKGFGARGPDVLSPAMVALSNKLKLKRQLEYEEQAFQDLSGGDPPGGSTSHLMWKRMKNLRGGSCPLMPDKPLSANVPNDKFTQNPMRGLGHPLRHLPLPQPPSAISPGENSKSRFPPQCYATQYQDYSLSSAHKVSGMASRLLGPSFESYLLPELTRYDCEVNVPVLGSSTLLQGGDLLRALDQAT

Take `N#Cc1cc(F)cc(Oc2ccc3c4c2CCC[C@]4(O)C(F)(F)C3(F)F)c1` [Compound 2, (R)-3-fluoro-5-((1,1,2,2-tetrafluoro-8a-hydroxy-1,2,6,7,8,8a-hexahydroacenaphthylen-5-yl)oxy)benzonitrile]: the midpoint of the response, the EC50, lay at 6 nM.

Molecule `N#Cc1cc(F)cc(Oc2ccc3c4c2CCCC4(O)C(F)(F)C3(F)F)c1` (stereo not drawn) [Compound 1, 3-fluoro-5-((1,1,2,2-tetrafluoro-8a-hydroxy-1,2,6,7,8,8a-hexahydroacenaphthylen-5-yl)oxy)benzonitrile] registered an EC50 of 37 nM. Molecule `N#Cc1cc(F)cc(Oc2ccc3c4c2C(F)C(F)(F)CC4(O)C(F)(F)C3(F)F)c1` (stereo not drawn) [8-1 or 8-2] gave a concentration giving a half-maximal response (EC50) of 23 nM. Under `C=C1CCC2(O)c3c(ccc(Oc4cc(F)cc(C#N)c4)c31)C(F)(F)C2(F)F` (stereo not drawn) [Compound 3, 3-fluoro-5-((1,1,2,2-tetrafluoro-8a-hydroxy-6-methylene-1,2,6,7,8,8a-hexahydroacenaphthylen-5-yl)oxy)benzonitrile] stands 534 nM; under `CC1CCC2(O)c3c(ccc(Oc4cc(F)cc(C#N)c4)c31)C(F)(F)C2(F)F` (single isomer, unassigned) [one of 7-1 and 7-2], 372 nM. In turn, `CC1CCC2(O)c3c(ccc(Oc4cc(F)cc(C#N)c4)c31)C(F)(F)C2(F)F` (single isomer, unassigned) [the other of 7-1 and 7-2] yielded an EC50 of 3050 nM.

By EC50 is commonly meant the concentration needed to bring the measured effect to its halfway point. Lower therefore signals greater potency.

These data come from patent US20220274914A1, “TRICYCLIC DERIVATIVES AS HYPOXIA INDUCIBLE FACTOR-2(ALPHA) INHIBITORS” (NIKANG THERAPEUTICS, INC., priority 2019, published 2022).
